The numbers were not newly measured in patent publication US20050008712A1, “Compositions incorporating high-caffeine green tea extract and related methods for promoting healthy body weight” (priority 2003, published 2005), which cites them from elsewhere.

For this series the following is noted: rats.

On to `O=C(O[C@@H]1Cc2c(O)cc(O)cc2O[C@@H]1c1cc(O)c(O)c(O)c1)c1cc(O)c(O)c(O)c1` [EGCG, (−)-epigallo-catechin-3-gallate], for which, under “after daily injections for a week”, the “loss of body weight” value is reported as 20%. Where the note is “injected”, the blood cholesterol result is listed as “significantly reduces”, the blood triglycerides result was “significantly reduces”, the body weight entry is “significantly reduces” and the food intake result is on record as “significantly reduces”.
